Measured values reported in the NIST ThermoML archive (doi:10.1016/j.fluid.2014.01.019).
Numbers after ± are expanded uncertainties.

Details: Liquid; for mass density: 101.33 kPa, Vibrating tube method; for speed of sound: 101 kPa, Frequency=2 MHz, Linear variable-path acoustic interferometer

mass density (298.15 K) | speed of sound (303.15 K) | mass density (303.15 K) | mass density (308.15 K) | speed of sound (313.15 K) | mass density (313.15 K) | SMILES
1076.47 ± 0.15 kg/m3 | 1285 ± 8 m/s | 1072.86 ± 0.15 kg/m3 | 1068.21 ± 0.15 kg/m3 | 1248 ± 8 m/s | 1064.01 ± 0.15 kg/m3 | Cc1ccccc1Cl [2-chlorotoluene]
1041.44 ± 0.14 kg/m3 | 1514 ± 9 m/s | 1037.67 ± 0.14 kg/m3 | 1033.75 ± 0.14 kg/m3 | 1485 ± 9 m/s | 1029.91 ± 0.14 kg/m3 | OCc1ccccc1 [benzenemethanol]
1064.93 ± 0.16 kg/m3 | 1274 ± 8 m/s | 1059.56 ± 0.16 kg/m3 | 1054.27 ± 0.15 kg/m3 | 1237 ± 8 m/s | 1049.29 ± 0.15 kg/m3 | Cc1ccc(Cl)cc1 [4-chlorotoluene]
1067.25 ± 0.15 kg/m3 | 1281 ± 8 m/s | 1062.79 ± 0.15 kg/m3 | 1058.29 ± 0.15 kg/m3 | 1247 ± 8 m/s | 1053.49 ± 0.15 kg/m3 | Cc1cccc(Cl)c1 [3-chlorotoluene]

SMILES | mass density (298.15 K) | speed of sound (303.15 K) | mass density (303.15 K) | mass density (308.15 K) | speed of sound (313.15 K) | mass density (313.15 K)
Cc1ccccc1[N+](=O)[O-] [2-nitrotoluene] | 1159.6 ± 0.19 kg/m3 | 1439 ± 9 m/s | 1153.29 ± 0.18 kg/m3 | 1149.78 ± 0.18 kg/m3 | 1403 ± 9 m/s | 1144.91 ± 0.18 kg/m3
Cc1cccc([N+](=O)[O-])c1 [3-nitrotoluene] | 1152.23 ± 0.18 kg/m3 | 1442 ± 9 m/s | 1147.67 ± 0.18 kg/m3 | 1142.67 ± 0.18 kg/m3 | 1409 ± 9 m/s | 1137.98 ± 0.18 kg/m3
